Data on 8 compounds can be found in article PMC8717711, “Metabolites From the Mangrove-Derived Fungus Cladosporium sp. HNWSW-1” (Frontiers in Chemistry, 2021).

In series [1] the target is α-glucosidase (from baker's yeast). The series can be described thus: α-Glycosidase inhibitory activity (p-nitrophenyl α-D-glucopyranoside substrate). The class given is biochemical. As to conditions: α-glucosidase 0.2 U/ml, phosphate buffer pH 6.8, pNPG substrate, 37°C 15 min, absorbance 405 nm. As to the method:
A mixture including 25 μl of different compounds (final concentrations of 0.0625, 0.125, 0.25, 0.5, and 1.0 mM), 25 μl of α-glucosidase (0.2 U/ml, from baker’s yeast, Sigma), and 175 μl phosphate buffer (pH 6.8) was left to stand for 10 min at room temperature in a 96-well plate, and then 25 μl of 23.2 mM p-nitrophenyl α-D-glucopyranoside (Sigma-Aldrich) was added and further incubated at 37°C for 15 min. Finally, the absorbance was measured at 405 nm to determine the amount of p-nitrophenol cleaved by the enzyme using a Synergy H1 Hybrid Multi-Mode Microplate Reader (BioTek Instruments, Inc.). The control was prepared by adding phosphate buffer instead of the sample in the same way as the test. The blank was prepared by adding phosphate buffer instead of α-glucosidase using the same method.

Series [2] in a line: Cytotoxicity by the MTT method, Hela. The class given is cell-based. As to conditions: human, HeLa cells (human cervical cancer cell line), 36 h incubation with compound. The method, then: (§1) The cytotoxic activity of compounds 1–3 and 5–8 against human cervical cancer cell lines (Hela), human hepatic carcinoma cell lines (BEL-7402), leukemia cell lines (K562), and human gastric cell lines (SGC-7901) was assayed by the MTT method ([Mosmann, 1983]; [Wang et al., 2013]). These cell lines were purchased from Shang Hai Cell Bank of Chinese Academy of Sciences. Hela, BEL-7402, K562, and SGC-7901 cell lines were cultured in RPMI-1640 with 10% FBS under a humidified atmosphere of 5% CO2 and 95% air at 37°C, and 198 μl of the cell suspension was plated in 96-well microtiter plates. After being incubated for 24 h, 2 μl of the test solutions in DMSO was added to each well and further incubated for 36 h. The MTT solution (20 μl, 5 mg/ml in IPMI-1640 medium) was then added to each well and further incubated for 4 h. Finally, the medium containing MTT (150 μl) was gently replaced by DMSO and pipetted to dissolve any formazan crystals formed. Absorbance was then determined on a Multiskan FC photometric microplate reader (Thermo Fisher Scientific) at 570 nm. Adriamycin was used as the positive control drug.

The nature of series [3]: Cytotoxicity by the MTT method, SGC-7901. The class given is cell-based. Particulars: human, SGC-7901 cells (human gastric cell line), 36 h incubation with compound. As to the method:
as §1

Series [4] can be described thus: Cytotoxicity by the MTT method, K562. The format is cell-based. Particulars: human, K562 cells (leukemia cell line), 36 h incubation with compound. As to the method: as §1
Series [5] is described as follows: Cytotoxicity by the MTT method, BEL-7402. The class given is cell-based. Particulars: human, BEL-7042 (printed in table; BEL-7402 in text) cells, 36 h incubation with compound. The method, then: as §1

Consider `CC(=O)NCC(=O)c1c[nH]c2ccccc12` [Compound 5, N-acetyl-β-oxotryptamine], for which the IC50 in series [1] came to 170 ± 10 µM. The IC50 at 36 h in series [2], in series [3], in series [4] and in series [5] was over 100 µM throughout.

Take `COC(=O)CCC(C)(O)CCc1cc(C(=O)O)ccc1O` (stereo not drawn) [Compound 2, cladoslide B]: in series [1], the IC50 was over 1000 µM. For the same compound, the IC50 at 36 h in series [2], in series [3], in series [4] and in series [5] was over 100 µM in each case.

Turning to `CC(C)C[C@H](NC(=O)c1nc(C(=O)O)cc2c1[nH]c1ccccc12)C(=O)O` [Compound 3, cladospomine], the IC50 in series [1] is over 1000 µM. In addition, the IC50 at 36 h in series [2], in series [3], in series [4] and in series [5] was over 100 µM throughout.

For the compound `C[C@@H](O)CCCCC[C@H](O)[C@@H]1C=CC(=O)O1` [Compound 6, (4S,5S,11R)-iso-cladospolide B], the IC50 in series [1] is over 1000 µM. Further, the IC50 at 36 h in series [2], in series [3], in series [4] and in series [5] was over 100 µM throughout.

Regarding `CC(O)(CCC(=O)O)CCc1cc(C(=O)O)ccc1O` (stereo not drawn) [Compound 1, cladoslide A], the half-maximal inhibitory concentration (IC50) in series [1] came out at 320 ± 10 µM. Further, the IC50 at 36 h was over 100 µM in series [2], over 100 µM in series [3], 13.1 ± 0.08 µM in series [4] and over 100 µM in series [5].

For the compound `COc1cccc2c1C(=O)c1c(O)c3c(c(O)c1C2=O)C[C@@](O)(C(=O)CO)C[C@@H]3O[C@H]1C[C@H](N)[C@H](O)[C@H](C)O1` [Adriamycin, reference compound], the IC50 at 36 h in series [2] was determined as 0.28 ± 0.01 µM; in series [3], 0.22 ± 0.01 µM; in series [4], 0.1 ± 0.01 µM; in series [5], 0.47 ± 0.01 µM.

For the compound `C[C@@H](O)CCCCC[C@H](O)[C@H]1C=CC(=O)O1` [Compound 8, (4R,5S,11R)-iso-cladospolide B], the IC50 in series [1] was over 1000 µM. Further, the IC50 at 36 h in series [2], in series [3], in series [4] and in series [5] was over 100 µM each time.

In the case of `C[C@H](O)CCCCC[C@H](O)[C@@H]1C=CC(=O)O1` [Compound 7, (4S,5S,11S)-iso-cladospolide B], the IC50 in series [1] is over 1000 µM. For the same compound, the half-inhibitory concentration (IC50) at 36 h in series [2], in series [3], in series [4] and in series [5] was over 100 µM each time.
